PubChem BioAssay (NCI)
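How tested: cells in 96-well plates exposed to compound for 48 hours at five concentrations. GI50 is the concentration that inhibits growth by half. TGI denotes the concentration required for complete inhibition of growth.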

Experiments:
Experiment in all cases: inhibition of tumour cell growth, NCI panel, 48 h
786-0 renal = tested on: 786-0 renal
A498 renal = tested on: A498 renal
A549 NSCLC = tested on: A549 NSCLC
ACHN renal = tested on: ACHN renal
BT-549 breast = tested on: BT-549 breast
CAKI-1 renal = tested on: CAKI-1 renal
CCRF-CEM leukemia = tested on: CCRF-CEM leukemia
COLO 205 colon = tested on: COLO 205 colon
DU-145 prostate = tested on: DU-145 prostate
HCC-2998 colon = tested on: HCC-2998 colon
HCT-116 colon = tested on: HCT-116 colon
HCT-15 colon = tested on: HCT-15 colon
HL-60(TB) leukemia = tested on: HL-60(TB) leukemia
HOP-62 NSCLC = tested on: HOP-62 NSCLC
HOP-92 NSCLC = tested on: HOP-92 NSCLC
HS 578T breast = tested on: HS 578T breast
HT29 colon = tested on: HT29 colon
IGROV1 ovarian = tested on: IGROV1 ovarian
K-562 leukemia = tested on: K-562 leukemia
KM12 colon = tested on: KM12 colon
LOX IMVI melanoma = tested on: LOX IMVI melanoma
M14 melanoma = tested on: M14 melanoma
MALME-3M melanoma = tested on: MALME-3M melanoma
MCF7 breast = tested on: MCF7 breast
MDA-MB-231 breast = tested on: MDA-MB-231 breast
MDA-MB-435 = tested on: MDA-MB-435
MOLT-4 leukemia = tested on: MOLT-4 leukemia
NCI-H226 lung = tested on: NCI-H226 lung
NCI-H23 lung = tested on: NCI-H23 lung

Cc1ccccc1C1=C(c2cn(C)c3ccccc23)C(=O)NC1=O
GI50 (786-0 renal): > 25 µM
TGI (786-0 renal): > 25 µM
GI50 (A498 renal): 6.52 µM
TGI (A498 renal): 20.7 µM
GI50 (A549 NSCLC): 12.2 µM
TGI (A549 NSCLC): > 25 µM
GI50 (ACHN renal): 7.33 µM
TGI (ACHN renal): > 25 µM
GI50 (BT-549 breast): > 21.8 µM
TGI (BT-549 breast): > 25 µM
GI50 (CAKI-1 renal): 10.2 µM
TGI (CAKI-1 renal): > 25 µM
GI50 (CCRF-CEM leukemia): 9.75 µM
TGI (CCRF-CEM leukemia): > 25 µM
GI50 (COLO 205 colon): 9.01 µM
TGI (COLO 205 colon): > 25 µM
GI50 (DU-145 prostate): 23.7 µM
TGI (DU-145 prostate): > 25 µM
GI50 (HCC-2998 colon): > 25 µM
TGI (HCC-2998 colon): > 25 µM
GI50 (HCT-116 colon): 7.77 µM
TGI (HCT-116 colon): > 25 µM
GI50 (HCT-15 colon): 10.7 µM
TGI (HCT-15 colon): > 25 µM
GI50 (HL-60(TB) leukemia): 10.8 µM
TGI (HL-60(TB) leukemia): > 25 µM
GI50 (HOP-62 NSCLC): > 24.1 µM
TGI (HOP-62 NSCLC): > 25 µM
GI50 (HOP-92 NSCLC): > 25 µM
TGI (HOP-92 NSCLC): > 25 µM
GI50 (HS 578T breast): 10 µM
TGI (HS 578T breast): > 25 µM
GI50 (HT29 colon): 12.1 µM
TGI (HT29 colon): > 25 µM
GI50 (IGROV1 ovarian): > 25 µM
TGI (IGROV1 ovarian): > 25 µM
GI50 (K-562 leukemia): 13.6 µM
TGI (K-562 leukemia): > 25 µM
GI50 (KM12 colon): 10.8 µM
TGI (KM12 colon): > 25 µM
GI50 (LOX IMVI melanoma): 14.9 µM
TGI (LOX IMVI melanoma): > 25 µM
GI50 (M14 melanoma): > 25 µM
TGI (M14 melanoma): > 25 µM
GI50 (MALME-3M melanoma): 23.9 µM
TGI (MALME-3M melanoma): > 25 µM
GI50 (MCF7 breast): 9.2 µM
TGI (MCF7 breast): > 25 µM
GI50 (MDA-MB-231 breast): 21.5 µM
TGI (MDA-MB-231 breast): > 25 µM
GI50 (MDA-MB-435): > 21.5 µM
TGI (MDA-MB-435): > 25 µM
GI50 (MOLT-4 leukemia): 10.8 µM
TGI (MOLT-4 leukemia): > 25 µM
GI50 (NCI-H226 lung): 11.6 µM
TGI (NCI-H226 lung): > 25 µM
GI50 (NCI-H23 lung): > 25 µM
